Source: PubChem BioAssay (NCI)
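96-well plates; 48 h exposure; 5 concentrations. Endpoints by linear interpolation between flanking doses. Not reached: highest tested concentration assigned. GI50 = concentration required for 50% inhibition of growth. The concentration for full growth arrest is given as TGI.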

Tests used:
Assay in all cases: DTP human tumour cell line panel, 48 h; in the data active = GI50 below about 0.43 µM; inactive = the rest
LOX IMVI melanoma = tested on: LOX IMVI melanoma
786-0 renal = tested on: 786-0 renal
A498 renal = tested on: A498 renal
MDA-MB-435 = tested on: MDA-MB-435
TK-10 renal = tested on: TK-10 renal
KM12 colon = tested on: KM12 colon
SF-295 CNS = tested on: SF-295 CNS
SF-539 CNS = tested on: SF-539 CNS
K-562 leukemia = tested on: K-562 leukemia
M14 melanoma = tested on: M14 melanoma
UACC-62 melanoma = tested on: UACC-62 melanoma
SF-268 CNS = tested on: SF-268 CNS
SW-620 colon = tested on: SW-620 colon
PC-3 prostate = tested on: PC-3 prostate
T-47D breast = tested on: T-47D breast
U251 CNS = tested on: U251 CNS
CCRF-CEM leukemia = tested on: CCRF-CEM leukemia
DU-145 prostate = tested on: DU-145 prostate
SNB-75 CNS = tested on: SNB-75 CNS
SNB-19 CNS = tested on: SNB-19 CNS
IGROV1 ovarian = tested on: IGROV1 ovarian
NCI-H522 lung = tested on: NCI-H522 lung
EKVX NSCLC = tested on: EKVX NSCLC
NCI-H226 lung = tested on: NCI-H226 lung
MDA-MB-231 breast = tested on: MDA-MB-231 breast
UACC-257 melanoma = tested on: UACC-257 melanoma
SN12C renal = tested on: SN12C renal
OVCAR-5 ovarian = tested on: OVCAR-5 ovarian
HCC-2998 colon = tested on: HCC-2998 colon
CAKI-1 renal = tested on: CAKI-1 renal
HS 578T breast = tested on: HS 578T breast
OVCAR-8 ovarian = tested on: OVCAR-8 ovarian
SK-MEL-2 melanoma = tested on: SK-MEL-2 melanoma
HOP-92 NSCLC = tested on: HOP-92 NSCLC
HL-60(TB) leukemia = tested on: HL-60(TB) leukemia
NCI-H460 lung = tested on: NCI-H460 lung
MALME-3M melanoma = tested on: MALME-3M melanoma
COLO 205 colon = tested on: COLO 205 colon
RXF 393 renal = tested on: RXF 393 renal
A549 NSCLC = tested on: A549 NSCLC
SR leukemia = tested on: SR leukemia
RPMI-8226 leukemia = tested on: RPMI-8226 leukemia
SK-MEL-28 melanoma = tested on: SK-MEL-28 melanoma
OVCAR-4 ovarian = tested on: OVCAR-4 ovarian
OVCAR-3 ovarian = tested on: OVCAR-3 ovarian
SK-MEL-5 melanoma = tested on: SK-MEL-5 melanoma
MCF7 breast = tested on: MCF7 breast
ACHN renal = tested on: ACHN renal
MOLT-4 leukemia = tested on: MOLT-4 leukemia
BT-549 breast = tested on: BT-549 breast
NCI/ADR-RES ovarian = tested on: NCI/ADR-RES ovarian
UO-31 renal = tested on: UO-31 renal
HCT-15 colon = tested on: HCT-15 colon
NCI-H23 lung = tested on: NCI-H23 lung
SK-OV-3 ovarian = tested on: SK-OV-3 ovarian
HT29 colon = tested on: HT29 colon
HCT-116 colon = tested on: HCT-116 colon
HOP-62 NSCLC = tested on: HOP-62 NSCLC

C=C(C)[C@@H]1CCC2=C[C@H](C/C(C)=C\C3=CC(C)=C(O3)[C@H]1O)OC2=O
98.8 µM: TGI (MDA-MB-231 breast)
> 100 µM: TGI (LOX IMVI melanoma) | TGI (786-0 renal) | TGI (A498 renal) | TGI (MDA-MB-435) | TGI (TK-10 renal) | TGI (KM12 colon) | TGI (SF-295 CNS) | TGI (SF-539 CNS) | TGI (K-562 leukemia) | TGI (M14 melanoma) | TGI (UACC-62 melanoma) | TGI (SF-268 CNS) | TGI (SW-620 colon) | TGI (PC-3 prostate) | TGI (T-47D breast) | TGI (U251 CNS) | TGI (CCRF-CEM leukemia) | TGI (DU-145 prostate) | TGI (SNB-75 CNS) | TGI (SNB-19 CNS) | TGI (IGROV1 ovarian) | TGI (NCI-H522 lung) | TGI (EKVX NSCLC) | TGI (NCI-H226 lung) | TGI (UACC-257 melanoma) | TGI (SN12C renal) | TGI (OVCAR-5 ovarian) | TGI (HCC-2998 colon) | TGI (CAKI-1 renal) | TGI (HS 578T breast) | TGI (OVCAR-8 ovarian) | TGI (SK-MEL-2 melanoma) | TGI (HOP-92 NSCLC) | TGI (HL-60(TB) leukemia) | TGI (NCI-H460 lung) | TGI (MALME-3M melanoma) | TGI (COLO 205 colon) | TGI (RXF 393 renal) | TGI (A549 NSCLC) | TGI (SR leukemia) | TGI (RPMI-8226 leukemia) | TGI (SK-MEL-28 melanoma) | TGI (OVCAR-4 ovarian) | TGI (OVCAR-3 ovarian) | TGI (SK-MEL-5 melanoma) | TGI (MCF7 breast) | TGI (ACHN renal) | TGI (MOLT-4 leukemia) | TGI (BT-549 breast) | TGI (NCI/ADR-RES ovarian) | TGI (UO-31 renal) | TGI (HCT-15 colon)

O=C1CC(c2ccccc2)Cc2nc3ccc(Br)cc3cc21 (configuration not stated)
0.672 µM: TGI (HL-60(TB) leukemia)
15.9 µM: TGI (BT-549 breast)
> 91.8 µM: TGI (MALME-3M melanoma)
20.3 µM: TGI (NCI-H522 lung)
> 20.3 µM: TGI (NCI-H226 lung)
96.3 µM: TGI (MDA-MB-231 breast)
28.3 µM: TGI (SF-295 CNS)
> 36.8 µM: TGI (SR leukemia)
0.693 µM: TGI (SF-539 CNS)
46.1 µM: TGI (HOP-92 NSCLC)
0.126 µM: TGI (MDA-MB-435)
2.22 µM: TGI (SK-MEL-5 melanoma)
> 100 µM: TGI (786-0 renal) | TGI (TK-10 renal) | TGI (K-562 leukemia) | TGI (UACC-62 melanoma) | TGI (SF-268 CNS) | TGI (SW-620 colon) | TGI (PC-3 prostate) | TGI (T-47D breast) | TGI (U251 CNS) | TGI (CCRF-CEM leukemia) | TGI (DU-145 prostate) | TGI (SNB-19 CNS) | TGI (NCI-H23 lung) | TGI (SK-OV-3 ovarian) | TGI (IGROV1 ovarian) | TGI (EKVX NSCLC) | TGI (UACC-257 melanoma) | TGI (SN12C renal) | TGI (OVCAR-5 ovarian) | TGI (CAKI-1 renal) | TGI (OVCAR-8 ovarian) | TGI (SK-MEL-2 melanoma) | TGI (A549 NSCLC) | TGI (RPMI-8226 leukemia) | TGI (SK-MEL-28 melanoma) | TGI (OVCAR-4 ovarian) | TGI (HT29 colon) | TGI (MCF7 breast) | TGI (ACHN renal) | TGI (MOLT-4 leukemia) | TGI (UO-31 renal) | TGI (HCT-116 colon) | TGI (HOP-62 NSCLC) | TGI (HCT-15 colon)
> 59.8 µM: TGI (LOX IMVI melanoma)
9.03 µM: TGI (NCI/ADR-RES ovarian)
active: GI50 (A498 renal) 0.0377 µM | GI50 (MDA-MB-435) 0.0328 µM | GI50 (KM12 colon) 0.368 µM | GI50 (SF-295 CNS) 0.265 µM | GI50 (SF-539 CNS) 0.226 µM | GI50 (K-562 leukemia) 0.162 µM | GI50 (M14 melanoma) 0.0486 µM | GI50 (UACC-62 melanoma) 0.26 µM | GI50 (SW-620 colon) 0.362 µM | GI50 (PC-3 prostate) 0.296 µM | GI50 (CCRF-CEM leukemia) 0.0492 µM | GI50 (DU-145 prostate) 0.209 µM | GI50 (SNB-75 CNS) 0.187 µM | GI50 (NCI-H522 lung) 0.204 µM | GI50 (HS 578T breast) 0.408 µM | GI50 (OVCAR-8 ovarian) 0.4 µM | GI50 (SK-MEL-2 melanoma) 0.283 µM | GI50 (HL-60(TB) leukemia) 0.235 µM | GI50 (NCI-H460 lung) 0.339 µM | GI50 (MALME-3M melanoma) 0.076 µM | GI50 (COLO 205 colon) 0.281 µM | GI50 (A549 NSCLC) 0.378 µM | GI50 (SR leukemia) 0.0855 µM | GI50 (OVCAR-3 ovarian) 0.304 µM | GI50 (HT29 colon) 0.244 µM | GI50 (SK-MEL-5 melanoma) 0.342 µM | GI50 (MOLT-4 leukemia) 0.0639 µM | GI50 (NCI/ADR-RES ovarian) 0.0748 µM | GI50 (HCT-116 colon) 0.0509 µM
> 90.1 µM: TGI (SNB-75 CNS)
> 94.5 µM: TGI (HS 578T breast)
0.487 µM: TGI (A498 renal)
> 37.7 µM: TGI (KM12 colon)
12.4 µM: TGI (M14 melanoma)
inactive: GI50 (LOX IMVI melanoma) 0.746 µM | GI50 (786-0 renal) 0.667 µM | GI50 (TK-10 renal) 24.2 µM | GI50 (SF-268 CNS) 4.65 µM | GI50 (T-47D breast) 5.68 µM | GI50 (U251 CNS) 0.514 µM | GI50 (SNB-19 CNS) 0.495 µM | GI50 (NCI-H23 lung) 0.575 µM | GI50 (SK-OV-3 ovarian) 0.694 µM | GI50 (IGROV1 ovarian) 0.428 µM | GI50 (EKVX NSCLC) 0.78 µM | GI50 (NCI-H226 lung) 0.908 µM | GI50 (MDA-MB-231 breast) 0.65 µM | GI50 (UACC-257 melanoma) 23.6 µM | GI50 (SN12C renal) 0.577 µM | GI50 (OVCAR-5 ovarian) 0.757 µM | GI50 (HCC-2998 colon) 1.57 µM | GI50 (CAKI-1 renal) 0.459 µM | GI50 (HOP-92 NSCLC) 0.45 µM | GI50 (RPMI-8226 leukemia) 2.92 µM | GI50 (SK-MEL-28 melanoma) 1.34 µM | GI50 (OVCAR-4 ovarian) 6.93 µM | GI50 (MCF7 breast) 2.75 µM | GI50 (ACHN renal) 0.498 µM | GI50 (BT-549 breast) 0.589 µM | GI50 (UO-31 renal) 0.689 µM | GI50 (HOP-62 NSCLC) 0.526 µM | GI50 (HCT-15 colon) 0.476 µM
16.8 µM: TGI (HCC-2998 colon)
13.7 µM: TGI (NCI-H460 lung)
1.8 µM: TGI (COLO 205 colon)
1.14 µM: TGI (OVCAR-3 ovarian)
